Earlier results, collected in patent US20120289611A1, “PECTIN COMPOUNDS, METHODS OF USING PECTIN COMPOUNDS, AND METHODS OF CONTROLLING WATER SOLUBILITY” (priority 2009, published 2012).
Values after ≈ are worked out from the molar mass of the structure shown. “Also recorded” adds a separate entry of the source. Where a name gives a salt, the structure may show the parent alone.

Conditions: in water (where stated)
For `COc1ccccc1OCCNCC(O)COc1cccc2[nH]c3ccccc3c12` (centres unmarked) [Carvedilol], the solubility is listed as 0.583 µg/mL (≈ 1.43 µM). In the case of `CN(C)CCCC1(c2ccc(F)cc2)OCc2cc(C#N)ccc21` (centres unmarked) [Citalopram Hydrobromide], the solubility is listed as 31 µg/mL. For `COC(=O)[C@H](c1ccccc1Cl)N1CCc2sccc2C1` [Clopidogrel bisulphate], the solubility is given as 50.78 µg/mL. In the case of `CCC(=O)O[C@]1(C(=O)SCF)[C@H](C)C[C@H]2[C@@H]3C[C@H](F)C4=CC(=O)C=C[C@]4(C)[C@@]3(F)[C@@H](O)C[C@@]21C` [Fluticasone propionate], the solubility is given as 0.51 µg/mL (≈ 1.02 µM). For `Cc1c(OCC(F)(F)F)ccnc1C[S+]([O-])c1nc2ccccc2[nH]1` (centres unmarked) [Lansoprazole], the solubility is listed as 0.97 µg/mL (≈ 2.63 µM). In the case of `CCCCc1nc(Cl)c(CO)n1Cc1ccc(-c2ccccc2-c2nn[nH]n2)cc1` [Losartan], the solubility is given as 0.82 µg/mL (≈ 1.94 µM). In the case of `CCCCc1nc(Cl)c(CO)n1Cc1ccc(-c2ccccc2-c2nnn[n-]2)cc1.[K+]` [potassium losartan], the solubility is given as 0.82 µg/mL.

Same assay, conditions: organic solvent named in the value; hydrochloride
In the case of `CCc1ccc(CCOc2ccc(CC3SC(=O)NC3=O)cc2)nc1` (centres unmarked) [Pioglitazone hydrochloride], the “solubility in words, other solvents” value is given as “slightly soluble in anhydrous ethanol; also recorded: very slightly soluble in acetone and acetonitrile; also recorded: insoluble in ether”.

Same assay, conditions: water, or solvent not stated
In the case of `COc1ccc2nc([S@@+]([O-])Cc3ncc(C)c(OC)c3C)[nH]c2c1` [Esomeprazole], the solubility in words is listed as “very slightly soluble in water”. For `C[C@@H]1C[C@H]2[C@@H]3CCC4=CC(=O)C=C[C@]4(C)[C@@]3(Cl)[C@@H](O)C[C@]2(C)[C@@]1(OC(=O)c1ccco1)C(=O)CCl` [Mometasone furoate], the solubility in words is listed as “practically insoluble”. In the case of `Cc1cc2c(s1)Nc1ccccc1N=C2N1CCN(C)CC1` [Olanzapine], the solubility in words is listed as “practically insoluble in water”. For `CCc1ccc(CCOc2ccc(CC3SC(=O)NC3=O)cc2)nc1` (centres unmarked) [Pioglitazone hydrochloride], the solubility in words is given as “practically insoluble in water”. In the case of `CCCc1nc2c(C)cc(-c3nc4ccccc4n3C)cc2n1Cc1ccc(-c2ccccc2C(=O)O)cc1` [Telmisartan], the solubility in words is given as “practically insoluble”. In the case of `O=P(O)(O)C(O)(Cn1ccnc1)P(=O)(O)O` [Zoledronic acid monohydrate], the solubility in words is listed as “sparingly soluble”.
